This assay concerns the target Recombinant human KIF18A (1-467His-tagged) protein (Homo sapiens (Human), UniProt Q8NI77). Put plainly: KIF18A enzyme assay (microtubule-stimulated ATPase activity, ADP-Glo). The conditions noted are these: 30 nM KIF18A, ATP 75 μM, read-out: inhibitory activity against KIF18A IC50. It is filed as biochemical. In outline: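 Baculovirus-expressed human KIF18A (1-467, His-tagged; 30 nM) preincubated 15 min at room temperature with compound (22-point 2-fold series) in pH 7.5 Tris buffer containing 30 μg/mL pig microtubules and 1 μM paclitaxel.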
On the technique in general: ADP-Glo first removes unused ATP, then detects ADP through luciferase.

Usually IC50 stands for the concentration needed to halve the response being measured.

Chain of Recombinant human KIF18A (1-467His-tagged) protein (Q8NI77 1-467): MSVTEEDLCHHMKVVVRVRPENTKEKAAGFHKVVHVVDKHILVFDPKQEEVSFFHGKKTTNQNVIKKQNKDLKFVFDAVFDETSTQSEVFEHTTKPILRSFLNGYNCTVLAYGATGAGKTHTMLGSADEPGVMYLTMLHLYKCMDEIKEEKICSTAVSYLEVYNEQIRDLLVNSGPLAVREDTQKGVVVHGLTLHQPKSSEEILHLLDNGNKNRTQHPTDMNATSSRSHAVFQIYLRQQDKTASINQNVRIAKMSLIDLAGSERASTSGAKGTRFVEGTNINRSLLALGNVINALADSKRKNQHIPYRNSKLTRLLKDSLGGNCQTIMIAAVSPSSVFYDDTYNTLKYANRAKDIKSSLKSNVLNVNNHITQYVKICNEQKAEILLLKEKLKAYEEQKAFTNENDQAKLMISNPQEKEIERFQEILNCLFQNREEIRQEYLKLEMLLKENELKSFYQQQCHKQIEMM
Chain of Recombinant human KIF18A (1-467His-tagged) protein (P02550 whole entry partner): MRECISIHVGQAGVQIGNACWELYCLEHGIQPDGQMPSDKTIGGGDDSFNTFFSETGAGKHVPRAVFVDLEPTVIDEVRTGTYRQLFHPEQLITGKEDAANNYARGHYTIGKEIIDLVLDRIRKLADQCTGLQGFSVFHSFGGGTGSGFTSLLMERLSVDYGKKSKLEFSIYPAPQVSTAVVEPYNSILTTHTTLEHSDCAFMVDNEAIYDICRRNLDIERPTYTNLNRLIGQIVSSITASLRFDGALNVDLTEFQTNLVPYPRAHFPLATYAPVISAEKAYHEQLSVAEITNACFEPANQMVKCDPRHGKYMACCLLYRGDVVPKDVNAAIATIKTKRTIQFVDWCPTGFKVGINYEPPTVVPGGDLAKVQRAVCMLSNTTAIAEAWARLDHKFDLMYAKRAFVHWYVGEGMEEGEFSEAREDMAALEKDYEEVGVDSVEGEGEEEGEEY
Chain of Recombinant human KIF18A (1-467His-tagged) protein (P02554 whole entry partner): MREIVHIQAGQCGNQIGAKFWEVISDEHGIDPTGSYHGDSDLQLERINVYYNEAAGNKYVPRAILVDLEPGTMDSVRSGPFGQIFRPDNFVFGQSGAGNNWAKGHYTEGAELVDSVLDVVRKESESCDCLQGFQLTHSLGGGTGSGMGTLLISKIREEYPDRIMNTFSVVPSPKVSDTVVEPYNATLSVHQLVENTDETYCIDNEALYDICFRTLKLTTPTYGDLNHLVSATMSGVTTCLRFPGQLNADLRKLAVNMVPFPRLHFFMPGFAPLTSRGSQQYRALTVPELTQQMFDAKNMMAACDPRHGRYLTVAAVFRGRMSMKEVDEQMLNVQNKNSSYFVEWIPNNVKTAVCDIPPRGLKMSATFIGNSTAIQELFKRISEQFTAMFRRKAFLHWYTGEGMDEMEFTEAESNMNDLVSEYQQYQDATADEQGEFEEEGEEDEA

Consider `C[C@H]1CN(c2nc(NC(=O)c3ccc(S(=O)(=O)NCCO)cc3N3CCC4(CC3)CC4)cc3ccn(C)c23)CCO1` [Compound 467], for which the concentration for half-maximal inhibition (IC50) was no more than 100 nM.

Regarding `C[C@@H](CO)S(=O)(=O)Nc1ccc(NC(=O)c2cc3c(c(N4CCC(F)(F)CC4)c2)OCC3)c(N2CCC3(CC2)CC3)c1` [Compound 45], the half-maximal inhibitory concentration (IC50) is no more than 100 nM.

As to `C[C@H](CO)S(=O)(=O)Nc1ccc(C(=O)Nc2cc3c(c(N4CCC(F)(F)CC4)c2)N(C)CC3)c(N2CCC3(CC2)CC3)c1` [Compound 270], the IC50 is no more than 100 nM.

`CN1CCc2cc(NC(=O)c3ccc(NS(=O)(=O)CCO)cc3N3CCC4(CC3)CC4)cc(N3CCOCC3)c21` [Compound 268]: the half-inhibitory concentration (IC50) is no more than 100 nM.

As for `O=C(Nc1ccc(S(=O)(=O)NCCO)cc1N1CCC2(CC1)CC2)c1cc(N2CCOCC2)c2occc2c1` [Compound 188], the IC50 is no more than 100 nM.

Consider `O=C(Nc1cc2c(c(N3CCC(F)CC3)c1)OCC2)c1ccc(NS(=O)(=O)CCO)cc1N1CCC2(CC1)CC2` [Compound 9], for which the half-maximal inhibitory concentration (IC50) was no more than 100 nM.

Regarding `C[C@@H]1CN(c2nc(NC(=O)c3ccc(NS(=O)(=O)[C@H](C)CO)cc3N3CCC4(CC3)CC4)cc3c2N(C)CC3)CCO1` [Compound 336], the IC50 is no more than 100 nM.

For `C[C@H](CO)NS(=O)(=O)c1ccc(C(=O)Nc2cc(N3CCO[C@H](C)C3)c3c(ccn3C)c2)c(N2CCC3(CC2)CC3)c1` [Compound 416], the half-maximal inhibitory concentration (IC50) was no more than 100 nM.

Take `O=C(Nc1ccc(S(=O)(=O)NCCO)cc1N1CCC2(CC1)CC2)c1cc2c(c(N3CCC(F)(F)CC3)n1)OCCC2` [Compound 550]: the IC50 was no more than 100 nM.

As to `C[C@@H]1CN(c2nc(NC(=O)c3ccc(NS(=O)(=O)CCO)cc3N3CCC4(CC3)CC4)cc3ccn(C)c23)CCO1` [Compound 450], the concentration for half-maximal inhibition (IC50) was no more than 100 nM.

On to `CN1CCc2cc(C(=O)Nc3ccc(S(=O)(=O)NCCO)cc3N3CCC4(CC3)CC4)nc(N3CCOCC3)c21` [Compound 380], for which the IC50 was no more than 100 nM.

In the case of `O=C(Nc1cc2ccoc2c(N2CCC(F)(F)CC2)n1)c1ccc(S(=O)(=O)NCCO)cc1N1CCC2(CC1)CC2` [Compound 209], the half-maximal inhibitory concentration (IC50) was no more than 100 nM.

For the compound `CN1CCc2cc(NC(=O)c3ccc(NS(=O)(=O)CCO)cc3N3CCC4(CC3)CC4)cc(OCCC(F)(F)F)c21` [Compound 261], the IC50 was no more than 100 nM.

As for `O=C(Nc1cc(N2CCC(F)(F)CC2)c2[nH]ccc2c1)c1ccc(NS(=O)(=O)CCO)cc1N1CCC2(CC1)CC2` [Compound 521], the half-inhibitory concentration (IC50) is no more than 100 nM.

In the case of `O=C(Nc1ccc(S(=O)(=O)NCCO)cc1N1CCC2(CC1)CC2)c1cc(N2CCC(F)CC2)c2occc2c1` [Compound 185], the half-maximal inhibitory concentration (IC50) is no more than 100 nM.

In the case of `CN1CCc2cc(C(=O)Nc3ccc(S(=O)(=O)NCCO)cc3N3CCC4(CC3)CC4)cc(N3CCC4(CC4)C3)c21` [Compound 310], the IC50 was no more than 100 nM.

`O=C(Nc1ccc(NS(=O)(=O)CCO)cc1N1CCC2(CC1)CC2)c1cc2c(c(OC3CCC3)c1)OCC2` [Compound 39]: the IC50 was no more than 100 nM.

For the compound `C[C@H]1CN(c2cc(NC(=O)c3ccc(NS(=O)(=O)CCO)cc3N3CCC4(CC3)CC4)cc3ccn(C)c23)CCO1` [Compound 387], the half-maximal inhibitory concentration (IC50) is no more than 100 nM.

Take `CN1CCc2cc(NC(=O)c3ccc(NS(=O)(=O)CCO)cc3N3CCC4(CC3)CC4)cc(N3CCC(C)(F)C3)c21` (stereo not shown) [Compound 264]: the IC50 is no more than 100 nM.

For `C[C@H]1CN(c2cc(C(=O)Nc3ccc(S(=O)(=O)NCCO)cc3N3CCC4(CC3)CC4)cc3ccn(C)c23)CCO1` [Compound 435], the half-inhibitory concentration (IC50) was no more than 100 nM.

Take `CC(C)(CO)Nc1cc(NC(=O)c2ccc(NS(=O)(=O)CCO)cc2N2CCC3(CC2)CC3)cc2c1OCC2` [Compound 11]: the IC50 was no more than 100 nM.

In the case of `C[C@@H]1CN(c2cc(NC(=O)c3ccc(NS(=O)(=O)CCO)cc3N3CCC4(CC3)CC4)cc3ccoc23)CCO1` [Compound 130], the IC50 is no more than 100 nM.

As to `CN1CCc2cc(C(=O)Nc3ccc(S(=O)(=O)NCCO)cc3N3CCC4(CC3)CC4)nc(N3CCC(C)(F)C3)c21` (stereo not shown) [Compound 376], the half-inhibitory concentration (IC50) was no more than 100 nM.

As for `C[C@H](CO)S(=O)(=O)Nc1ccc(NC(=O)c2cc3c(c(N4CCC(F)(F)CC4)n2)N(C)CC3)c(N2CCC3(CC2)CC3)c1` [Compound 366], the concentration for half-maximal inhibition (IC50) is no more than 100 nM.

Turning to `O=C(Nc1ccc(NS(=O)(=O)CCO)cc1N1CCC2(CC1)CC2)c1cc2c(c(N3CC(F)(F)C3)c1)OCC2` [Compound 36], the IC50 was no more than 100 nM.

For the compound `CC1(F)CCN(c2nc(C(=O)Nc3ccc(NS(=O)(=O)CCO)cc3N3CCC4(CC3)CC4)cc3ccoc23)C1` (stereo not shown) [Compound 232], the 50% inhibitory concentration (IC50) is no more than 100 nM.

Regarding `O=C(Nc1cc2ocnc2c(N2CCC(F)(F)CC2)n1)c1ccc(NS(=O)(=O)CCO)cc1N1CCC2(CC1)CC2` [Compound 518], the half-inhibitory concentration (IC50) was no more than 100 nM.

With `CN1CCc2cc(C(=O)Nc3ccc(S(=O)(=O)NCCO)cc3N3CCC4(CC3)CC4)cc(N3CCOCC3)c21` [Compound 316], the half-maximal inhibitory concentration (IC50) was no more than 100 nM.

Turning to `O=C(Nc1cc2ccoc2c(N2CC(F)(F)C2)n1)c1ccc(S(=O)(=O)NCCO)cc1N1CCC2(CC1)CC2` [Compound 212], the 50% inhibitory concentration (IC50) is no more than 100 nM.

For `C[C@@H]1CN(c2nc(NC(=O)c3ccc(NS(=O)(=O)[C@@H](C)CO)cc3N3CCC4(CC3)CC4)cc3ccn(C)c23)CCO1` [Compound 463], the IC50 was no more than 100 nM.

For `Cn1ccc2cc(C(=O)Nc3ccc(NS(=O)(=O)CCO)cc3N3CCC4(CC3)CC4)nc(OCCC(F)(F)F)c21` [Compound 485], the IC50 is no more than 100 nM.

Regarding `C[C@@H]1CN(c2nc(NC(=O)c3ccc(S(=O)(=O)N[C@@H](C)CO)cc3N3CCC4(CC3)CC4)cc3ccoc23)CCO1` [Compound 223], the 50% inhibitory concentration (IC50) was no more than 100 nM.

Take `CN1CCc2cc(C(=O)Nc3ccc(NS(=O)(=O)CCO)cc3N3CCC4(CC3)CC4)cc(N3CC4CC4C3)c21` (stereo not shown) [Compound 298]: the IC50 was no more than 100 nM.

For `C[C@@H]1CN(c2cc(C(=O)Nc3ccc(NS(=O)(=O)[C@@H](C)CO)cc3N3CCC4(CC3)CC4)cc3ccoc23)CCO1` [Compound 175], the concentration for half-maximal inhibition (IC50) is no more than 100 nM.

As to `Cn1ccc2cc(C(=O)Nc3ccc(S(=O)(=O)NCCO)cc3N3CCC4(CC3)CC4)nc(N3CCC(F)(F)CC3)c21` [Compound 497], the half-maximal inhibitory concentration (IC50) was no more than 100 nM.

Regarding `Cn1ccc2cc(NC(=O)c3ccc(S(=O)(=O)NCCO)cc3N3CCC4(CC3)CC4)cc(OCCC(F)(F)F)c21` [Compound 405], the concentration for half-maximal inhibition (IC50) is no more than 100 nM.

`C[C@@H]1CN(c2nc(NC(=O)c3ccc(S(=O)(=O)NCCO)cc3N3CCC4(CC3)CC4)cc3c2N(C)CC3)CCO1` [Compound 338]: the IC50 was no more than 100 nM.

In the case of `Cn1ccc2cc(NC(=O)c3ccc(NS(=O)(=O)CCO)cc3N3CCC4(CC3)CC4)nc(NC(C)(C)CO)c21` [Compound 459], the concentration for half-maximal inhibition (IC50) is no more than 100 nM.

`Cn1ccc2cc(NC(=O)c3ccc(S(=O)(=O)NCCO)cc3N3CCC4(CC3)CC4)nc(N3CC4CC4C3)c21` (stereo not shown) [Compound 474]: the IC50 was no more than 100 nM.

`O=C(Nc1cc2ncoc2c(N2CCC(F)(F)CC2)n1)c1ccc(NS(=O)(=O)CCO)cc1N1CCC2(CC1)CC2` [Compound 514]: the half-inhibitory concentration (IC50) was no more than 100 nM.

As for `Cn1ccc2cc(NC(=O)c3ccc(NS(=O)(=O)CCO)cc3N3CCC4(CC3)CC4)nc(N3CCC(F)(F)CC3)c21` [Compound 449], the concentration for half-maximal inhibition (IC50) is no more than 100 nM.

With `C[C@H]1CN(c2nc(NC(=O)c3ccc(NS(=O)(=O)CCO)cc3N3CCC4(CC3)CC4)cc3ccn(C)c23)CCO1` [Compound 451], the IC50 is no more than 100 nM.

As to `O=C(Nc1cc2c(c(N3CCC(F)(F)CC3)n1)NCC2)c1ccc(NS(=O)(=O)CCO)cc1N1CCC2(CC1)CC2` [Compound 524], the IC50 is no more than 100 nM.

On to `CC1(F)CCN(c2cc(C(=O)Nc3ccc(NS(=O)(=O)CCO)cc3N3CCC4(CC3)CC4)cc3c2OCC3)C1` (stereo not shown) [Compound 40], for which the IC50 was no more than 100 nM.

Consider `C[C@@H]1CN(c2nc(NC(=O)c3ccc(NS(=O)(=O)[C@@H](C)CO)cc3N3CCC4(CC3)CC4)cc3c2OCC3)CCO1` [Compound 79], for which the half-maximal inhibitory concentration (IC50) is no more than 100 nM.

Consider `C[C@H](CO)NS(=O)(=O)c1ccc(C(=O)Nc2cc3ccoc3c(N3CCC(F)(F)CC3)n2)c(N2CCC3(CC2)CC3)c1` [Compound 222], for which the concentration for half-maximal inhibition (IC50) is no more than 100 nM.

`O=C(Nc1ccc(NS(=O)(=O)CCO)cc1N1CCC2(CC1)CC2)c1cc2c(c(N3CC(F)(F)C3)n1)OCC2` [Compound 100]: the IC50 is no more than 100 nM.

For `CC(C)(CO)Nc1nc(NC(=O)c2ccc(S(=O)(=O)NCCO)cc2N2CCC3(CC2)CC3)cc2ccoc12` [Compound 219], the IC50 was no more than 100 nM.

Take `O=C(Nc1cc(OC2CCC2)c2occc2c1)c1ccc(S(=O)(=O)NCCO)cc1N1CCC2(CC1)CC2` [Compound 151]: the concentration for half-maximal inhibition (IC50) is no more than 100 nM.

Turning to `Cn1ccc2cc(C(=O)Nc3ccc(NS(=O)(=O)CCO)cc3N3CCC4(CC3)CC4)cc(N3CC(F)(F)C3)c21` [Compound 420], the IC50 was no more than 100 nM.

Consider `O=C(Nc1cc2c(c(OCCC(F)(F)F)c1)OCC2)c1ccc(S(=O)(=O)NCCO)cc1N1CCC2(CC1)CC2` [Compound 21], for which the IC50 is no more than 100 nM.

`O=C(Nc1cc(N2CCC(F)(F)CC2)c2[nH]cnc2c1)c1ccc(NS(=O)(=O)CCO)cc1N1CCC2(CC1)CC2` [Compound 525]: the IC50 was no more than 100 nM.

Take `O=C(Nc1ccc(NS(=O)(=O)CCO)cc1N1CCC2(CC1)CC2)c1cc2ccoc2c(N2CCC(F)(F)CC2)n1` [Compound 225]: the half-maximal inhibitory concentration (IC50) is no more than 100 nM.

On to `CC(C)(CO)Nc1cc(C(=O)Nc2ccc(NS(=O)(=O)CCO)cc2N2CCC3(CC2)CC3)cc2c1OCC2` [Compound 43], for which the IC50 was no more than 100 nM.

Turning to `Cn1ccc2cc(NC(=O)c3ccc(S(=O)(=O)NCCO)cc3N3CCC4(CC3)CC4)cc(N3CCOCC3)c21` [Compound 412], the IC50 is no more than 100 nM.

`O=C(Nc1ccc(NS(=O)(=O)CCO)cc1N1CCC2(CC1)CC2)c1cc2c(c(N3CCC(F)(F)CC3)n1)OCCC2` [Compound 548]: the IC50 is no more than 100 nM.

As for `Cn1ccc2cc(C(=O)Nc3ccc(NS(=O)(=O)CCO)cc3N3CCC4(CC3)CC4)nc(N3CC(F)(F)C3)c21` [Compound 484], the IC50 was no more than 100 nM.

For the compound `C[C@@H]1CN(c2cc(C(=O)Nc3ccc(NS(=O)(=O)CCO)cc3N3CCC4(CC3)CC4)cc3ccoc23)CCO1` [Compound 162], the concentration for half-maximal inhibition (IC50) is no more than 100 nM.

Values taken from patent publication US20250197382A1, “KIF18A INHIBITOR” (WIGEN BIOMEDICINE TECHNOLOGY (SHANGHAI) CO., LTD., priority 2022, published 2025).
